Experimental data taken from US8394829B2, “Bi-functional quinoline analogs” (Gilead Sciences, Inc., priority 2010, dated 2013).
pEC50, pIC50: −log10 of the molar value.

Legend:
[1] = molecular target: T1, human recombinant beta-2 adrenoreceptors (Homo sapiens, UniProt P07550); assay: Beta-2 adrenoceptor binding assay ([3H](−)CGP-12177 displacement); settings: CHO cells expressing human beta-2 adrenoreceptors, [3H](−)CGP-12177 0.3 nM, 120 min
T1 construct: expressed in transfected cells; host or cells: CHO cells
Description: Beta-2 Adrenoceptor Binding Assay
Test compounds were incubated for 120 min with Chinese hamster oocyte (CHO) cells expressing the human recombinant beta-2 adrenoreceptors. Binding of test compounds to the beta-2 adrenoreceptors was determined by measuring the displacement of the radiolabeled ligand [^3H](−)CGP-12177 (0.3 nM) from the receptor measured by a scintillation counting. Concentration response curves were generated for test compounds and the IC50 (molar concentration of the compound which produced 50% inhibition for the maximal response for that compound) was determined. These assays were performed using a protocol based on the original description of the assay by Joseph et al., (2004) Naun.-Sch. Arch. Pharm.; 369:525-532.
IC50 determinations for the compounds presented above are seen in the second column of Table 1 (Beta 2 IC50).

[2] = molecular target: T1, human recombinant beta-2 adrenoreceptors; assay: Functional agonism of human recombinant beta-2 adrenoreceptors expressed in CHO cells (cAMP HTRF); format: cell-based; settings: CHO cells expressing human beta-2 adrenoreceptors, cAMP elevation, 30 min
Description: Functional Agonism of Human Recombinant Beta-2 Adrenoreceptors Expressed in Chinese Hamster Oocytes (CHO)
Test compounds were incubated for 30 min with CHO cells expressing the human recombinant beta-2 adrenoreceptors. Agonism of the receptor was measured by the elevation of intracellular cyclic-AMP over control levels detected using a homogeneous time resolved fluorescence (HTRF) format. Compounds were determined to be “full” or “partial” agonists based on the maximum level of cAMP accumulated compared to the control compound isoproterenol which is a full agonist in this assay system. Concentration response curves were generated for test compounds and the EC50 (molar concentration of the agonist which produced 50% of the maximal response for that compound) was determined. These assays were performed using a protocol based on the original description of the assay by Baker, J. G. (2005) Brit. J. Pharmacol.; 144:317-322.
EC50 determinations for the compounds presented above are seen in the third column of Table 1 (Beta 2 EC50).

[3] = tested on: LPS-induced TNF-α release from human peripheral blood mononuclear cells (PBMC); assay: Inhibition of LPS-induced TNF-α release from human PBMC; format: cell-based; settings: LPS 0.4 ng/mL, 6 h, presence or absence of ICI-118551 not given
Description: Inhibition of Lipopolysaccharide (LPS)-Induced Tumour Necrosis Factor Alpha (TNF-α) Release from Human Peripheral Blood Mononuclear Cells (PBMC)
Human whole blood was drawn from donors and cell purification initiated within two hours. Peripheral blood mononuclear cells (PBMC) were purified using a standard Ficoll gradient purification technique and aliquoted at a concentration of 100,000 cells/well in 96 well plates. Beta-2 adrenoreceptor agonists are also anti-inflammatory for some immune cells expressing the receptor and in this assay they can inhibit tumor necrosis factor-alpha (TNF-α) production. Therefore PBMC were pre-incubated for 30 min in the presence of the beta-2 adrenoreceptor antagonist ICI-118551 [3-(isopropylamino)-1-[(7-methyl-4-indanyl)oxy]butan-2-ol] (10 μM) to determine the PDE4 directed activity of test compounds, and in the absence of ICI-118551 for the combined PDE4 and beta-2 receptor directed activity. Test compounds were dissolved in DMSO and diluted in buffer (final DMSO concentration of 0.1% v/v) and were then added to the cell suspensions and pre-incubated for a further 1 h at 37° C. LPS solution was then added (0.4 ng/mL) and the cells incubated for a further 6 h. At the end of the incubation period the cell supernatants were collected and TNF-α was measured using a Procarta Cytokine Assay Kit (Affymetrix, Santa Clara, Calif.) according to the manufacturers' instructions. Data were analyzed using MiraiBio Masterplex QT v4.0 software (MasterPlex Version 1.0.1.18 Copyright 2008, Hitachi Software Engineering Co., Ltd) and used to extrapolate Mean Fluorescence Intensity (MFI) into concentrations of TNF-α and mean values from replicate wells were determined. Inhibition curves were plotted using a nonlinear curve fit employing a single-site binding model to determine the IC50 value for each test compound in the presence or absence of ICI-118551 using GraphPad Prism 5 for Windows, version 5.02 (GraphPad Software, San Diego Calif.).
EC50 determinations for the compounds presented above are seen in the fourth column of Table 1 (PBMC TNF EC50).

[4] = molecular target: T2, Human recombinant PDE4B2 (Homo sapiens, UniProt Q07343); assay: Inhibition of PDE4B4 enzyme activity (PDE Glo Assay); format: biochemical; settings: human recombinant PDE4B2, 50 nM cAMP; read-out: PDE4 IC50
T2 construct: purchased BPS Bioscience
Description: Biological Examples Inhibition of PDE4B4 Enzyme Activity
The inhibitory activity of test compounds were determined using the PDE Glo Assay (Promega, V1361). The PDE-Glo Reaction Buffer was prepared (1 mL 5× buffer+4 mL water) and 150 nM solution of test compound dissolved in the Reaction Buffer, followed by 1:3 serial dilutions into Reaction Buffer. […] Human recombinant PDE4B2 (BPS Bioscience) was added to test compound in Reaction Buffer at a concentration of 0.12 nM per reaction. The enzyme and test compound were pre-incubated together at rt for 10 min. 50 nM of the enzyme substrate cAMP was then added to initiate the enzyme reaction, with the reaction terminated after one hour. Termination Buffer (1 mL 5× termination buffer+3.9 mL water+100 μL of 100 mM IBMX (ICN Chemicals, in DMSO)), was added to each reaction well to terminate the reaction. Detection Buffer (1 mL 5×PDE-Glo Detection buffer+3.96 mL water+40 μL PKA (supplied in kit)) was added to the cAMP-enzyme-test compound mix and this secondary reaction proceeded for 20 minutes at rt. An equal volume of Kinase Glo Reagent was then added to the reaction mixture and after 10 min luminescence was measured using a luminometer (EnVision, 0.1 sec read for luminescence). Luminescence values were […] related to levels of cAMP in the reaction mixture. Data were plotted as relative light units (RLU) versus test compound concentration and the IC50 determined using GraphPad Prism 5.0, using a nonlinear curve fit in a single-site binding model.
IC50 determinations for the compounds presented above are seen in the first column of Table 1 (PDE4IC50).

T1 sequence (P07550 whole entry): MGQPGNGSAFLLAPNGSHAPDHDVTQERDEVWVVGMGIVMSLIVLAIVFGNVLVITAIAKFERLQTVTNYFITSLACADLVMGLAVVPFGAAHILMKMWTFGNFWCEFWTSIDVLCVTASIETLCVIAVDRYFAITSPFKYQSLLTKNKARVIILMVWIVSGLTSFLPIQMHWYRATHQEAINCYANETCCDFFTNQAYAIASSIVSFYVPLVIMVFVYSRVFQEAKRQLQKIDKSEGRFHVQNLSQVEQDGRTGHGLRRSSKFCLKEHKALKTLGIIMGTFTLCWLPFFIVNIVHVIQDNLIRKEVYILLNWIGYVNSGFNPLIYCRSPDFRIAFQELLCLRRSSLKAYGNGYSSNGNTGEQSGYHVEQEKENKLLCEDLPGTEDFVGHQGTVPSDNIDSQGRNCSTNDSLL
T2 sequence (Q07343 1-564 isoform Q07343-2): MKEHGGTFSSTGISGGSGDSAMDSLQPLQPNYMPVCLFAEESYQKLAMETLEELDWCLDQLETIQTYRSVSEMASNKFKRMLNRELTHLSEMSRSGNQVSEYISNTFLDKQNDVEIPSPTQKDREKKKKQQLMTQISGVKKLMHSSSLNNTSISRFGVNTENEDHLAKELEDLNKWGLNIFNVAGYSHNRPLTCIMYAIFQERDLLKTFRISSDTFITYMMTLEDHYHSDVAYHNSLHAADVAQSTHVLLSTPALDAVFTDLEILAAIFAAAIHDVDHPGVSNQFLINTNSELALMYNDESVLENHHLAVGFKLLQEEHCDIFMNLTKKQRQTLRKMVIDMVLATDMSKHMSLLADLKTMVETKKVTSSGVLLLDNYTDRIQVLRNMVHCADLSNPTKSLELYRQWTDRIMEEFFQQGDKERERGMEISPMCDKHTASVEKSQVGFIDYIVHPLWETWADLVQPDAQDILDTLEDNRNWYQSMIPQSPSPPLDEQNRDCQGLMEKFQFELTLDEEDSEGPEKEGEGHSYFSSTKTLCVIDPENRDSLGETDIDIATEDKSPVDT

pIC50 [1] | pEC50 [2] | pIC50 [4] | SMILES | pEC50 [3]
> 7.00 | > 6.52 | – | COc1cccc(Nc2c(C(N)=O)cnc3c(C)cc(S(=O)(=O)c4cccc(C(=O)Nc5ccc(C#CCCCNC[C@H](O)c6cc(O)cc7c6OCC(=O)N7)cc5)c4)cc23)c1 [Example 24, (R)-6-((3-((4-(5-((2-hydroxy-2-(6-hydroxy-3-oxo-3,4-dihydro-2H-benzo[b][1,4]oxazin-8-yl)ethyl)amino)pent-1-yn-1-yl)phenyl)carbamoyl)phenyl)sulfonyl)-4-((3-methoxyphenyl)amino)-8-methylquinoline-3-carboxamide] | > 7.00
< 6.52 | < 6.52 | > 7.00 | COc1cccc(Nc2c(C(N)=O)cnc3c(C)cc(S(=O)(=O)c4cccc(C(=O)N(C)CCCCCCNC[C@H](O)c5ccc(O)c(CO)c5)c4)cc23)c1 [Example 44, (R)-6-[[3-[[6-[[2-Hydroxy-2-(4-hydroxy-3-(hydroxymethyl]phenyl]ethyl]amino)hexyl](methyl)carbamoyl]phenyl]sulfonyl]-4-[(3-methoxyphenyl)amino]-8-methylquinoline-3-carboxamide] | > 7.00
> 7.00 | > 7.00 | – | COc1cccc(Nc2c(C(N)=O)cnc3c(C)cc(S(=O)(=O)c4cccc(C(=O)N(C)c5ccc(CCCCOCCCCCCNC[C@H](O)c6ccc(O)c7[nH]c(=O)ccc67)cc5)c4)cc23)c1 [Example 40, (R)-6-((3-((4-(4-((6-((2-hydroxy-2-(8-hydroxy-2-oxo-1,2-dihydroquinolin-5-yl)ethyl)amino)hexyl)oxy)butyl)phenyl)(methyl)carbamoyl)phenyl)sulfonyl)-4-((3-methoxyphenyl)amino)-8-methylquinoline-3-carboxamide] | –
> 7.00 | – | – | COc1cccc(Nc2c(C(N)=O)cnc3c(C)cc(S(=O)(=O)c4ccc(-c5ccc(CCCNC[C@H](O)c6ccc(O)c7c6OCC(=O)N7)cc5)cc4)cc23)c1 [Example 49, (R)-6-((4′-(3-((2-hydroxy-2-(5-hydroxy-3-oxo-3,4-dihydro-2H-benzo[b][1,4]oxazin-8-yl)ethyl)amino)propyl)-[1,1′-biphenyl]-4-yl)sulfonyl)-4-((3-methoxyphenyl)amino)-8-methylquinoline-3-carboxamide] | > 7.00
> 7.00 | > 7.00 | – | COc1cccc(Nc2c(C(N)=O)cnc3c(C)cc(S(=O)(=O)c4cccc(C(=O)Nc5ccc(C#CCCCNC[C@H](O)c6ccc(O)c7c6OCC(=O)N7)cc5C)c4)cc23)c1 [Example 35, (R)-6-((3-((4-(5-((2-hydroxy-2-(5-hydroxy-3-oxo-3,4-dihydro-2H-benzo[b][1,4]oxazin-8-yl)ethyl)amino)pent-1-yn-1-yl)-2-methylphenyl)carbamoyl)phenyl)sulfonyl)-4-((3-methoxyphenyl)amino)-8-methylquinoline-3-carboxamide] | > 7.00
> 7.00 | – | – | COc1cccc(Nc2c(C(N)=O)cnc3c(C)cc(S(=O)(=O)c4cccc(C(=O)Nc5ccc(C#CCCCNC[C@H](O)c6ccc(O)c7c6OCC(=O)N7)c(C)c5)c4)cc23)c1 [Example 36, (R)-6-((3-((4-(5-((2-hydroxy-2-(5-hydroxy-3-oxo-3,4-dihydro-2H-benzo[b][1,4]oxazin-8-yl)ethyl)amino)pent-1-yn-1-yl)-3-methylphenyl)carbamoyl)phenyl)sulfonyl)-4-((3-methoxyphenyl)amino)-8-methylquinoline-3-carboxamide] | > 7.00
> 7.00 | – | – | COc1cccc(Nc2c(C(N)=O)cnc3c(C)cc(S(=O)(=O)c4cccc(C(=O)Nc5ccc(-c6ccc(CCCCNC[C@H](O)c7ccc(O)c8c7OCC(=O)N8)cc6)cc5)c4)cc23)c1 [Example 21, (R)-6-((3-((4′-(4-((2-hydroxy-2-(5-hydroxy-3-oxo-3,4-dihydro-2H-benzo[b][1,4]oxazin-8-yl)ethyl)amino)butyl)-(1,1′-biphenyl]-4-yl)carbamoyl)phenyl)sulfonyl)-4-((3-methoxyphenyl)amino)-8-methylquinoline-3-carboxamide] | > 7.00
> 7.00 | – | – | COc1cccc(Nc2c(C(N)=O)cnc3c(C)cc(S(=O)(=O)c4cccc(-c5ccc(CCCNC[C@H](O)c6ccc(O)c7c6OCC(=O)N7)cc5)c4)cc23)c1 [Example 50, (R)-6-((4′-(3-((2-hydroxy-2-(5-hydroxy-3-oxo-3,4-dihydro-2H-benzo[b][1,4]oxazin-8-yl)ethyl)amino)propyl)-[1,1′-biphenyl]-3-yl)sulfonyl)-4-((3-methoxyphenyl)amino)-8-methylquinoline-3-carboxamide] | > 7.00
> 7.00 | > 7.00 | – | COc1cccc(Nc2c(C(N)=O)cnc3c(C)cc(S(=O)(=O)c4cccc(C(=O)Nc5cccc(-c6ccc(CCCCNC[C@H](O)c7ccc(O)c8c7OCC(=O)N8)cc6)c5)c4)cc23)c1 [Example 22] | > 7.00
> 7.00 | > 7.00 | – | COc1cccc(Nc2c(C(N)=O)cnc3c(C)cc(S(=O)(=O)c4ccc(-c5ccc(CCCCCNC[C@H](O)c6ccc(O)c7c6OCC(=O)N7)cc5)cc4)cc23)c1 [Example 51, (R)-6-((4′-(5-((2-hydroxy-2-(5-hydroxy-3-oxo-3,4-dihydro-2H-benzo[b][1,4]oxazin-8-yl)ethyl)amino)pentyl)-[1,1′-biphenyl]-4-yl)sulfonyl)-4-((3-methoxyphenyl)amino)-8-methylquinoline-3-carboxamide] | > 7.00
> 6.52 | – | > 7.00 | COc1cccc(Nc2c(C(N)=O)cnc3c(C)cc(S(=O)(=O)c4cccc(C(=O)N5CCC(NC[C@H](O)c6ccc(O)c(CO)c6)CC5)c4)cc23)c1 [Example 42, (R)-6-[[3-[[4-[[2-Hydroxy-2-[4-hydroxy-3-(hydroxymethyl)phenyl]ethyl]amino]piperidine-1-yl]carbonyl]phenyl]sulfonyl]-4-[(3-methoxyphenyl)amino]-8-methylquinoline-3-carboxamide] | > 7.00
